System: patients with advanced solid tumors
[1] = 85 mg BID 14d-on/14d-off (N = 12)

Description: The study consisted of a dose-escalation part followed by an expansion part. In the dose escalation part, a 3-day pharmacokinetic (PK) lead-in period was conducted for a single dose in the first treatment cycle. Patients received GFH018 once on cycle 1 day 1 (C1D1) and underwent serial PK testing over the first 3 days. On C1D4, patients were administered the corresponding dose of GFH018 BID 14 days on/14 days off. The first cycle was defined as 31 days, including 3-day PK leading-in period with GFH018 single dosing and then 14d-on/14d-off dosing schedule. The subsequent cycles were 28 days. The starting dose of GFH018 was 5 mg, with eight planned dose levels up to 85 mg (5, 10, 20, 30, 40, 50, 65, and 85 mg). A modified 3+3 design was used to determine the maximum tolerance dose (MTD) and RDE, guided by safety/tolerability and PK data. Dose-limiting toxicities (DLTs) were evaluated during the first cycle at each dose level. The safety of 85 mg BID, 7 d-on/7 d-off, was explored after confirming the safety of 14 d-on/14 d-off. The DLTs were defined as hematological toxicities, including G4 neutropenia lasting for more than 5 days, G3 febrile neutropenia, G4 anemia, G4 thrombocytopenia, or G3 thrombocytopenia accompanied by bleeding, and ≥ G3 nonhematological toxicity (except for diarrhea, nausea, vomiting, and rash recovering ≤ G2 after supportive treatment within 3 days). The DLTs for cardiac toxicities included ≥ G2 cardiac valve abnormalities, ≥ G2 left ventricular ejection fraction (LVEF) decrease, any cardiovascular impairment shown in imaging, and abnormal highly sensitive troponin (hs-Tn) increased to ≥ twice the baseline in two consecutive tests with an interval ≥ 3 days. In the expansion part, patients were orally administered GFH018 RDE twice daily to further evaluate the safety of RDE and other dose regimens. […] The treatment cycle lasted 28 days.
All enrolled patients were monitored regularly after GFH018 administration. Safety assessments included adverse events (AEs), serious AEs (SAEs), laboratory assessments, vital signs, physical examinations, electrocardiography and echocardiography. AEs were graded according to the NCI Common Terminology Criteria for Adverse Events (NCI-CTCAE) v5.0. All AEs were followed up until they were stable or had recovered to baseline. Adverse events of special interest (AESIs) were predefined as echocardiographic abnormalities such as aggravated stenosis or regurgitation of the heart valves, clinically significant decreases in LVEF, brain natriuretic peptide (BNP) or N-terminal pro-brain natriuretic peptide (NT-proBNP) increases, and hs-Tn increases judged by investigators.
For the safety and efficacy analyses, data from patients who received GFH018 at the same dose in the dose-escalation and expansion cohorts were pooled. The demographic and baseline characteristics were summarized using descriptive methods. Safety and efficacy data were summarized for all patients who received at least one dose of GFH018. The ORR and DCR were summarized by cohort and overall. When the sample size of the analyzed group was ten or more, the Kaplan–Meier method was used to estimate the median PFS and TTP. In this study, treatment-emergent AEs (TEAEs) were defined as AEs that occurred on or after the first dosing date of GFH018 and no later than 30 days after the last dose of GFH018. The incidence and severity of AEs were descriptively summarized according to dose level. The PK parameters of GFH018 were calculated using noncompartmental analysis methods. All plasma PK data were summarized by cohort and visit day or time using descriptive statistics.

With `Cc1cccc(-c2nn3c(c2-c2ccc4ncnn4c2/C=C/C(N)=O)CCC3)n1` [GFH018] the “TRAE: LDH increased” value (85 mg BID 7d-on/7d-off (N = 6)) was 0 n (%), the “TRAE: Lymphocyte count decreased” value (85 mg BID 7d-on/7d-off (N = 6)) was 2 (33.3%) n (%) and the “TRAE: Protein urine present” value (85 mg BID 7d-on/7d-off (N = 6)) was 1 (16.7%) n (%). The “TRAE: Proteinuria” value (85 mg BID 7d-on/7d-off (N = 6)) was 0 n (%), the “Treatment-emergent Proteinuria (grouped PTs), G1” value (85 mg BID 7d-on/7d-off (N = 6)) was 2 (33.3) n (%) and the “Treatment-emergent Proteinuria (grouped PTs), G2” value (85 mg BID 7d-on/7d-off (N = 6)) was 0 n (%). The “Treatment-emergent Proteinuria (grouped PTs), G3” value (85 mg BID 7d-on/7d-off (N = 6)) was 0 n (%), the “Treatment-emergent Proteinuria (grouped PTs: proteinuria and urine protein present), any grade” value (85 mg BID 7d-on/7d-off (N = 6)) was 2 (33.3) n (%) and the “At least one TEAE” value [1] was 12 (100%) n (%). For the same compound, the “At least one TEAE (Table S3)” value [1] was 12 (100%) n (%), the “At least one TRAE” value [1] was 11 (91.7%) n (%) and the “TEAE: ALP increased” value [1] was 2 (16.7%) n (%). For the same compound, the “TEAE: ALT increased” value [1] was 3 (25.0%) n (%), the “TEAE: ALT increased, any grade (Table S3)” value [1] was 3 (25.0%) n (%) and the “TEAE: ALT increased, maximal CTCAE grade G1” value [1] was 3 (25.0%) n (%). For the same compound, the “TEAE: ALT increased, maximal CTCAE grade G2” value [1] was 0 n (%), the “TEAE: ALT increased, maximal CTCAE grade G3” value [1] was 0 n (%) and the “TEAE: ALT increased, maximal CTCAE grade G4” value [1] was 0 n (%). The “TEAE: ALT increased, maximal CTCAE grade G5” value [1] was 0 n (%), the “TEAE: AST increased” value [1] was 4 (33.3%) n (%) and the “TEAE: AST increased, any grade (Table S3)” value [1] was 4 (33.3%) n (%). For the same compound, the “TEAE: AST increased, maximal CTCAE grade G1” value [1] was 3 (25.0%) n (%), the “TEAE: AST increased, maximal CTCAE grade G2” value [1] was 1 (8.3%) n (%) and the “TEAE: AST increased, maximal CTCAE grade G3” value [1] was 0 n (%). The “TEAE: AST increased, maximal CTCAE grade G4” value [1] was 0 n (%), the “TEAE: AST increased, maximal CTCAE grade G5” value [1] was 0 n (%) and the “TEAE: Abdominal distention” value [1] was 2 (16.7%) n (%). The “TEAE: Abdominal pain” value [1] was 4 (33.3%) n (%), the “TEAE: Anemia” value [1] was 3 (25.0%) n (%) and the “TEAE: Asthenia” value [1] was 2 (16.7%) n (%). The “TEAE: Bilirubin conjugated increased” value [1] was 3 (25.0%) n (%), the “TEAE: Blood albumin decreased” value [1] was 1 (8.3%) n (%) and the “TEAE: Blood bilirubin increased” value [1] was 0 n (%). The “TEAE: C-reactive protein increased” value [1] was 3 (25.0%) n (%), the “TEAE: C-reactive protein increased, any grade (Table S3)” value [1] was 3 (25.0%) n (%) and the “TEAE: C-reactive protein increased, maximal CTCAE grade G1” value [1] was 3 (25.0%) n (%). The “TEAE: C-reactive protein increased, maximal CTCAE grade G2” value [1] was 0 n (%), the “TEAE: C-reactive protein increased, maximal CTCAE grade G3” value [1] was 0 n (%) and the “TEAE: C-reactive protein increased, maximal CTCAE grade G4” value [1] was 0 n (%). The “TEAE: C-reactive protein increased, maximal CTCAE grade G5” value [1] was 0 n (%), the “TEAE: Constipation” value [1] was 2 (16.7%) n (%) and the “TEAE: Decreased appetite” value [1] was 0 n (%). The “TEAE: Decreased appetite, any grade (Table S3)” value [1] was 0 n (%), the “TEAE: Decreased appetite, maximal CTCAE grade G1” value [1] was 0 n (%) and the “TEAE: Decreased appetite, maximal CTCAE grade G2” value [1] was 0 n (%). The “TEAE: Decreased appetite, maximal CTCAE grade G3” value [1] was 0 n (%), the “TEAE: Decreased appetite, maximal CTCAE grade G4” value [1] was 0 n (%) and the “TEAE: Decreased appetite, maximal CTCAE grade G5” value [1] was 0 n (%). The “TEAE: GGT increased” value [1] was 4 (33.3%) n (%), the “TEAE: GGT increased, any grade (Table S3)” value [1] was 4 (33.3%) n (%) and the “TEAE: GGT increased, maximal CTCAE grade G1” value [1] was 3 (25.0%) n (%). For the same compound, the “TEAE: GGT increased, maximal CTCAE grade G2” value [1] was 1 (8.3%) n (%), the “TEAE: GGT increased, maximal CTCAE grade G3” value [1] was 0 n (%) and the “TEAE: GGT increased, maximal CTCAE grade G4” value [1] was 0 n (%). For the same compound, the “TEAE: GGT increased, maximal CTCAE grade G5” value [1] was 0 n (%), the “TEAE: Hypoalbuminemia” value [1] was 3 (25.0%) n (%) and the “TEAE: LDH increased” value [1] was 2 (16.7%) n (%). For the same compound, the “TEAE: LDH increased, any grade (Table S3)” value [1] was 2 (16.7%) n (%), the “TEAE: LDH increased, maximal CTCAE grade G1” value [1] was 2 (16.7%) n (%) and the “TEAE: LDH increased, maximal CTCAE grade G2” value [1] was 0 n (%). For the same compound, the “TEAE: LDH increased, maximal CTCAE grade G3” value [1] was 0 n (%), the “TEAE: LDH increased, maximal CTCAE grade G4” value [1] was 0 n (%) and the “TEAE: LDH increased, maximal CTCAE grade G5” value [1] was 0 n (%). For the same compound, the “TEAE: Lymphocyte count decreased” value [1] was 4 (33.3%) n (%), the “TEAE: Platelet count decreased” value [1] was 1 (8.3%) n (%) and the “TEAE: Proteinuria” value [1] was 2 (16.7%) n (%). For the same compound, the “TEAE: Sinus tachycardia” value [1] was 1 (8.3%) n (%) and the “TEAE: Urine protein present” value [1] was 1 (8.3%) n (%).
